The values below come from article PMC5741510 (Cell chemical biology, 2017).

The Ki is a dissociation constant, usually derived from enzyme kinetics or from competition with a known ligand.

The assay addresses dihydroorotate dehydrogenase (DHODH) (Escherichia coli, UniProt P0A7E1). As to the kind of experiment: continuous DCIP-reduction assay at […] nm, Lineweaver-Burk analysis. The class given is biochemical.

The structures appear in SMILES notation.

dihydroorotate dehydrogenase (DHODH), sequence (P0A7E1 whole entry): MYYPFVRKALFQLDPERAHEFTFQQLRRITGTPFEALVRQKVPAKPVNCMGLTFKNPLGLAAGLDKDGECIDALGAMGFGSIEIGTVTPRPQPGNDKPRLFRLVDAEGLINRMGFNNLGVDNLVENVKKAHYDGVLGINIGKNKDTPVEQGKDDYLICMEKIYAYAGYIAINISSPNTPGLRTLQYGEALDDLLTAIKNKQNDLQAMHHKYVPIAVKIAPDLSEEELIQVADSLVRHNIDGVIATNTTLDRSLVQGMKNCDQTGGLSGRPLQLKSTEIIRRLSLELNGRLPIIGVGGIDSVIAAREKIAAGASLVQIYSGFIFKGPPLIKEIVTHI

`CCCCCCC=CCc1nc2ccccc2c(O)c1C` [HMNQ, 4-hydroxy-3-methyl-2-(2-nonenyl)-quinoline] registered a Ki of 51 nM. For `CCCCCCCc1cc(=O)c2ccccc2n1O` [HQNO, 2-heptyl-4(1H)-quinolone N-oxide], the Ki worked out at 239 nM.
